Assays:
[1] = tested on: Elite Eucalyptus urophylla clone; assay: Auxin pre-treatment, Agrobacterium infection rate by GUS staining; format: cell-based
Experimental: GUS staining was performed to monitor the frequency of Agrobacterium infection and to ensure that the selected shoots are not escapes or chimeras. […] To determine GUS activity, the explants were incubated in a substrate comprising 100 mM phosphate buffer (pH 7.0), 0.05% dimethyl suphoxide, 0.05% Triton X-100, 10 mM EDTA, 0.5 mM potassium ferrocyanide, and 1.5 mg/ml 5-bromo-4-chloro-3-indolyl-β-D-glucuronide (X-gluc). The explants were subjected to 10 minutes of vacuum before an overnight incubation at 37° C. Following overnight incubation, GUS foci were counted.
Explants from E. urophylla and E. saligna were prepared as described in Example 1 and Agrobacterium strain GV2260 containing pWVR133 was prepared as described in Example 3. Harvested explants were incubated in the dark for 4 days either on Eucalyptus regeneration medium or a medium with various auxin-rich growth regulators. Agrobacterium culture was dripped on explants and co-cultured with the explants on the same medium for 3 days in dark. Then, explants were removed from the Agrobacterium puddle and transferred to Euc Regeneration medium supplemented with 400 mg/l timentin for 4 days. Following transfer to regeneration medium, the explants were stained for GUS expression.

E. urophylla = assay: Combining auxin with Agrobacterium inducer in pre-culture, infection by GUS staining; format: cell-based, Eucalyptus urophylla; details: Table 8
Experimental: Induced Agrobacterium culture was prepared as described in Example 3 and the culture was dripped onto each explant by pipette. Sufficient Agrobacterium culture was dripped to ensure that all the cut edges were covered with bacterial solution. Alternatively, the explants may be transformed by vacuum infiltration, floral dip, and other methods of Agrobacterium-mediated transformation. Following transformation, explants covered with Agrobacterium culture were placed in the dark for four days of co-cultivation. Alternatively, the explants may be co-cultivated with Agrobacterium under light conditions. Additionally, the explants may be co-cultivated with Agrobacterium under light or dark conditions for 2-10 days, preferably 4 days. Following co-cultivation, the explants were transferred to Euc Regeneration medium (Table 3) with 400 mg/l timentin. There is no need to wash explants. Explants were cultured on this medium for four days before transfer to a selection medium. In the present example, the selection medium is the Euc Regeneration medium supplemented with both timentin and an herbicide selection agent.
(§1) GUS staining was performed to monitor the frequency of Agrobacterium infection and to ensure that the selected shoots are not escapes or chimeras. For transformation experiments with pWVR133, the leaf and stem tissues from the regenerated shoots were stained for GUS expression immediately upon shoot development. For transformation experiments with pWVZ20, leaf and stem tissues from the regenerated shoots were stained for GUS expression when shoots are further developed and free from residual Agrobacterium. To determine GUS activity, the explants were incubated in a substrate comprising 100 mM phosphate buffer (pH 7.0), 0.05% dimethyl suphoxide, 0.05% Triton X-100, 10 mM EDTA, 0.5 mM potassium ferrocyanide, and 1.5 mg/ml 5-bromo-4-chloro-3-indolyl-β-D-glucuronide (X-gluc). The explants were subjected to 10 minutes of vacuum before an overnight incubation at 37° C. Following overnight incubation, GUS foci were counted.
In the following examples, explants from E. urophylla clones were cultured on auxin-rich pre-culture medium with or without 250 μM AS before infection. Explants were pre-cultured with Euc Regeneration medium as the control. Following pre-culture, the explants were inoculated with Agrobacterium as described in Example 5.

[2] = tested on: Elite Eucalyptus urophylla clone; assay: Shoot regeneration after pre-culture in control experiments; format: cell-based; details: medium with 1.0 mg/l 2,4-D (0.5 mg/l zeatin)
Source text: In addition, the regeneration is not affected by the pre-culture in control experiments.

[3] = tested on: wounded cells along the cut edges; assay: Agrobacterium inducer alone in pre-culture medium, infection by GUS staining; format: cell-based
[4] = tested on: E. urophylla leaf explants; assay: Geneticin selection of NPTII transformants, GUS staining of resistant calli; format: cell-based, Eucalyptus urophylla; details: about 10 weeks selection
Experimental: as §1
E. urophylla leaf explants were infected with Agrobacterium strain GV2260 harboring pWVC33, which contains GUS gene (driven by an constitutive promoter) and NPTII gene (driven by a different constitutive promoter). Before transforming, the explants were pre-cultured for 4 days on a medium having auxin enrichment (IAA at 2 mg/l instead of 0.1 mg/l NAA in standard regeneration medium) and acetosyringone (250 μM). As described in Example 6, the explants were infected with Agrobacterium, co-cultivated on the same medium for 3 days, and then transferred to a regeneration medium supplemented with 400 mg/l timentin for 4 days. Then, the explants were transferred to a selection medium containing geneticin instead of an herbicide selection agent.
The transformants were placed on geneticin selection medium containing geneticin (either 20 or 30 mg/l). Instead of the 3- or 4-week transfer cycles used with an herbicide selection medium, the explants were transferred bi-weekly to fresh geneticin medium. […]

[5] = Table 6, 0.25 mg/l 2,4-D + 0.5 mg/l zeatin
[6] = Table 6, 1.0 mg/l 2,4-D + 0.5 mg/l zeatin
[7] = Table 7, 0.5 mg/l in EucReg Medium + 5 mg/l zeatin
[8] = Table 7, 0.5 mg/l in EucReg Medium + 5 mg/l zeatin, 25 explants
[9] = Table 7, 1.0 mg/l in EucReg Medium + 5 mg/l zeatin
[10] = Table 7, 1.0 mg/l in EucReg Medium + 5 mg/l zeatin, 25 explants
[11] = 0.25 mg/l 2,4-D + 5.0 mg/l zeatin, with or without 250 μM AS
[12] = Table 7, 2.0 mg/l in EucReg Medium + 5 mg/l zeatin
[13] = Table 7, 2.0 mg/l in EucReg Medium + 5 mg/l zeatin, 25 explants
[14] = Table 7, 3.0 mg/l in EucReg Medium + 5 mg/l zeatin
[15] = 2 mg/l IAA + 5.0 mg/l zeatin, with or without 250 μM AS
[16] = Table 6, 0.1 mg/l NAA + 5.0 mg/l zeatin (Control Regeneration Medium)
[17] = Table 7, 0.1 mg/l in EucReg Medium + 5 mg/l zeatin
[18] = Table 7, 0.1 mg/l in EucReg Medium + 5 mg/l zeatin, 25 explants
[19] = 0.1 mg/l NAA + 5.0 mg/l zeatin (Control Regeneration Medium)

SMILES: O=C(O)COc1ccc(Cl)cc1Cl [2,4-D, 2,4-Dichlorophenoxy acetic acid]
- % GUS+ [1, 5]: 17%
- Avg. No. Foci/Responding Explant [1, 5]: 1.5
- No. GUS Foci [1, 5]: 7
- No. GUS+ ([1]; Table 6, 0.25 mg/l 2,4-D + 0.5 mg/l zeatin, 24 explants): 4
- % GUS+ [1, 6]: 60%
- Avg. No. Foci/Responding Explant [1, 6]: 10.3
- No. GUS Foci [1, 6]: 155
- No. GUS+ ([1]; Table 6, 1.0 mg/l 2,4-D + 0.5 mg/l zeatin, 25 explants): 15
- % GUS+ [1, 7]: 80%
- Avg. No. Foci/Responding Explant [1, 7]: 4.9
- No. GUS Foci [1, 7]: 97
- No. GUS+ [1, 8]: 20
- % GUS+ [1, 9]: 48%
- Avg. No. Foci/Responding Explant [1, 9]: 5.3
- No. GUS Foci [1, 9]: 64
- No. GUS+ [1, 10]: 12
- % GUS+ (E. urophylla; [11]): 72%
- Avg. No. Foci/Responding Explant (E. urophylla; [11]): 10.8
- No. GUS Foci (E. urophylla; [11]): 388
- No. GUS+ (E. urophylla; 0.25 mg/l 2,4-D + 5.0 mg/l zeatin, with or without 250 μM AS, 50 explants): 36
- shoot regeneration [2]: delay of shoot regeneration

SMILES: COc1cc(C(C)=O)cc(OC)c1O [AS, acetosyringone]
- infection ([3]; AS alone in the pre-culture medium): stimulates infection
- infection of the wounded cells along the cut edges ([3]; GUS staining): increases the infection of the wounded cells along the cut edges

SMILES: CN[C@@H]1[C@@H](O)[C@@H](O[C@@H]2[C@@H](O)[C@H](O[C@H]3O[C@H]([C@@H](C)O)[C@@H](O)[C@H](O)[C@H]3N)[C@@H](N)C[C@H]2N)OC[C@]1(C)O [Geneticin]
- No. GUS+ Calli ([4]; Geneticin 20 mg/l, Regular shaded light, 5 calli stained): 0
- No. GUS+ Calli ([4]; Geneticin 30 mg/l, Dark, 6 calli stained): 4
- No. GUS+ Calli ([4]; Geneticin 30 mg/l, Regular shaded light, 17 calli stained): 13

SMILES: O=C(O)Cc1c[nH]c2ccccc12 [IAA, indole-3-acetic acid]
- % GUS+ [1, 9]: 64%
- Avg. No. Foci/Responding Explant [1, 9]: 7.3
- No. GUS Foci [1, 9]: 116
- No. GUS+ [1, 10]: 16
- % GUS+ [1, 12]: 64%
- Avg. No. Foci/Responding Explant [1, 12]: 10.4
- No. GUS Foci [1, 12]: 167
- No. GUS+ [1, 13]: 16
- % GUS+ [1, 14]: 96%
- Avg. No. Foci/Responding Explant [1, 14]: 12.3
- No. GUS Foci [1, 14]: 565
- No. GUS+ ([1]; Table 7, 3.0 mg/l in EucReg Medium + 5 mg/l zeatin, 48 explants): 46
- % GUS+ (E. urophylla; [15]): 73%
- Avg. No. Foci/Responding Explant (E. urophylla; [15]): 8.0
- No. GUS Foci (E. urophylla; [15]): 289
- No. GUS+ (E. urophylla; 2 mg/l IAA + 5.0 mg/l zeatin, with or without 250 μM AS, 49 explants): 36

SMILES: O=C(O)Cc1cccc2ccccc12 [NAA, naphthaleneacetic acid]
- % GUS+ [1, 16]: 12%
- Avg. No. Foci/Responding Explant [1, 16]: 2.3
- No. GUS Foci [1, 16]: 6
- No. GUS+ ([1]; Table 6, 0.1 mg/l NAA + 5.0 mg/l zeatin (Control Regeneration Medium), 25 explants): 3
- % GUS+ [1, 17]: 16%
- Avg. No. Foci/Responding Explant [1, 17]: 1.3
- No. GUS Foci [1, 17]: 5
- No. GUS+ [1, 18]: 4
- % GUS+ [1, 9]: 52%
- Avg. No. Foci/Responding Explant [1, 9]: 2.7
- No. GUS Foci [1, 9]: 35
- No. GUS+ [1, 10]: 13
- % GUS+ [1, 12]: 36%
- Avg. No. Foci/Responding Explant [1, 12]: 3.3
- No. GUS Foci [1, 12]: 30
- No. GUS+ [1, 13]: 9
- % GUS+ (E. urophylla; [19]): 22%
- Avg. No. Foci/Responding Explant (E. urophylla; [19]): 3.4
- No. GUS Foci (E. urophylla; [19]): 37
- No. GUS+ (E. urophylla; 0.1 mg/l NAA + 5.0 mg/l zeatin (Control Regeneration Medium), 50 explants): 11

SMILES: O=C(Nc1ccccc1)Nc1cnns1 [TDZ, thiadiazuron]
- % GUS+ [1, 17]: 12%
- Avg. No. Foci/Responding Explant [1, 17]: 8.3
- No. GUS Foci [1, 17]: 25
- No. GUS+ [1, 18]: 3
- % GUS+ [1, 7]: 4%
- Avg. No. Foci/Responding Explant [1, 7]: 3.0
- No. GUS Foci [1, 7]: 3
- No. GUS+ [1, 8]: 1
- % GUS+ [1, 9]: 0%
- Avg. No. Foci/Responding Explant [1, 9]: 0.0
- No. GUS Foci [1, 9]: 0
- No. GUS+ [1, 10]: 0
